{"source": "paper PMC6917776", "about": "“Discovery of a chemical probe for PRDM9” (Nature Communications, 2019)", "tested_on": "H3K4me3 at known PRDM9 binding loci and control TSS loci", "test": "ChIP-qPCR of H3K4me3 in PRDM9-transfected HEK293T cells", "assay_type": "cell-based, human", "details": "for dCq (IP-Input): H3K4me3 antibody, Replicate 1; for 2^-dCq (H3K4me3 ChIP-qPCR, IP relative to H3) / H3K4me3 ChIP-qPCR 2^-dCq (IP-Input): Replicate 2; for 2^-dCq (H3K4me3 ChIP-qPCR, IP relative to H3): Antibody H3K4me3; for H3K4me3 ChIP-qPCR 2^-dCq (IP-Input): chr2:40281930-40282015 Intragenic (SLC8A1-AS1), Figure 7 C, H3K4me3 antibody relative to H3", "procedure": "ChIP-qPCR assays were then conducted on known PRDM9 binding loci[26]. Ectopic expression of PRDM9^WT increased trimethylation of H3K4 (H3K4me3) at previously described PRDM9-specific intragenic and intergenic regions[26] (Fig. 7; Supplementary Fig. 12). […] The observed increases in H3K4me3 levels at intragenic and intergenic regions are therefore due directly to PRDM9 PR domain-dependent methylation activity, rather than through recruitment of other H3K4 methyltransferases or other indirect mechanisms.\nChIP qPCR analyses of H3K4me3 methylation levels of known PRDM9-bound loci and control loci. […] Concentrations used (µM) are indicated below each plot. (a–d) represent reported loci of PRDM9 methylation; (e, f) are transcriptional start sites (TSSs) which are not known loci of PRDM9 methylation. Data are normalized to total H3 and are presented as the mean ± upper and lower limits from two replicates. Representative plots of two independent experiments are shown in this figure. The coordinates and the genomic features associated with the assayed loci are indicated above each plot. Left Tailed Student's t-tests were performed by comparing DMSO (0 µM) treated cells to compound treated cells that have been transfected with the same plasmids. *p-value < 0.05 and **p-value < 0.01. Note that here we show a representative of two independent experiments (mean ± s.d of technical replicates) for our ChIP-qPCR experiments. Data obtained using this technique are inherently noisy due to stochastic differences in gene activity/histone positioning. Data are thus typically presented as representative rather than averaged. Source data are provided as a Source Data file.\nHEK293T cells were transfected with 37.5 μg empty pcDNA3.1(+) vector (Invitrogen), or the same vector expressing either wild-type PRDM9 (PRDM9^WT) or a catalytically dead PRDM9 mutant (PRDM9^Mut) and 75 μL of Lipofectamine 2000 (Invitrogen) in 6 mL of Opti-MEM (GIBCO) for 48 h. […] ChIP assays were then performed as previously described. Briefly, cells were fixed in 1% formaldehyde and the fixation reaction was quenched in a final concentration of 0.1 M glycine. Cell pellets were first lysed in LB1 (50 mM HEPES-KOH pH 7.5, 140 mM NaCl, 1 mM EDTA, 10% Glycerol, 0.5% Igepal, 0.25% TritonX), washed once in LB2 Buffer (10 mM Tris-HCl pH 8, 200 mM NaCl, 1 mM EDTA, 0.5 mM EGTA) and finally sonicated in LB3 buffer (10 mM Tris-HCl pH 8, 100 mM NaCl, 1 mM EDTA, 0.5 mM EGTA, 0.1% Sodium deoxycholate, 0.5% N-laurosylsarcosine) using a bioruptor (Diagenode). Thereafter, 50 μg of chromatin was subjected to ChIP using the following antibodies purchased from Abcam: α-H3K4me3 (1:200, ab8580, lot:GR3207339-1) and α-H3 (1:250, ab1791, lot:GR300978-4). After extensive washing in RIPA wash buffer (50 mM HEPES-KOH pH 7.6, 100 mM LiCl, 1 mM EDTA, 1% Igepal, 0.7% Sodium Deoxycholate), DNA was eluted from beads. The eluted DNA was treated with RNase A and Proteinase K and purified using the QIAGEN PCR purification kit. qPCR was then carried out targeting the indicated loci (Supplementary Table 3). Upper and lower limits were defined by |2^−(dCq±s) − 2^−(∆Cq)|, where s = √((Standard deviation of Input Cq)^2 + (Standard deviation of Target Cq)^2). […]\nformation. ChIP qPCR analyses of H3K4me3 methylation levels at known PRDM9-bound and control loci. Cells transfected with empty vector (negative control) or vectors overexpressing either wild-type PRDM9 (PRDM9 WT) or catalytically dead PRDM9 (PRDM9 MUT) were […]\nPanels a-d represent reported loci of […]\n(1 picture or pasted object on this page, not shown here)\nPRDM9 methylation; e-f are TSSs which are not known sites of PRDM9 methylation. Data are normalized to total H3 and are presented as the mean ± upper and lower limits from two […]", "data": [{"molecule": "COc1cc(OC)cc(-c2noc(N3CCN(C)C4(CCN(c5ccnc(C)c5)CC4)C3)n2)c1", "note": "[MRK-740]", "values": [{"measurement": "dCq (IP-Input)", "setting": "chr8:49932778-49932856 (Intergenic), PRDM9", "result": -2.203}, {"measurement": "dCq (IP-Input)", "setting": "chr8:49932778-49932856 (Intergenic), PRDM9_Cat.Dead", "result": 1.033}, {"measurement": "dCq (IP-Input)", "setting": "chr12:6643945-6644023 TSS (GAPDH), Empty Vector", "result": -5.504}, {"measurement": "dCq (IP-Input)", "setting": "chr12:6643945-6644023 TSS (GAPDH), PRDM9", "result": -5.409}, {"measurement": "dCq (IP-Input)", "setting": "chr12:6643945-6644023 TSS (GAPDH), PRDM9_Cat.Dead", "result": -6.466}, {"measurement": "dCq (IP-Input)", "setting": "chr19:8510167-8510261 TSS (HNRNPM), Empty Vector", "result": -5.657}, {"measurement": "dCq (IP-Input)", "setting": "chr19:8510167-8510261 TSS (HNRNPM), PRDM9", "result": -5.412}, {"measurement": "dCq (IP-Input)", "setting": "chr19:8510167-8510261 TSS (HNRNPM), PRDM9_Cat.Dead", "result": -6.463}, {"measurement": "H3K4me3 levels at tested TSS sites (ChIP-qPCR, in words)", "setting": "HEK293T transfected with wild-type PRDM9, 48 h", "result": "No significant reduction in H3K4me3 levels"}, {"measurement": "H3K4me3 levels at PRDM9-dependent intragenic and intergenic loci (ChIP-qPCR, in words)", "setting": "HEK293T transfected with wild-type PRDM9, 48 h, various concentrations", "result": "abrogated in a concentration-dependent manner in three out of four PRDM9-dependent loci"}, {"measurement": "2^-dCq (H3K4me3 ChIP-qPCR, IP relative to H3)", "setting": "Figure 7 D chr3:165514798-165514911 Intragenic (BCHE), Plasmid Empty Vector, Drug Conc. 2.5", "result": 0.6821}, {"measurement": "2^-dCq (H3K4me3 ChIP-qPCR, IP relative to H3)", "setting": "Figure 7 D chr3:165514798-165514911 Intragenic (BCHE), Plasmid Empty Vector, Drug Conc. 5", "result": 0.9187}, {"measurement": "2^-dCq (H3K4me3 ChIP-qPCR, IP relative to H3)", "setting": "Figure 7 D chr3:165514798-165514911 Intragenic (BCHE), Plasmid Empty Vector, Drug Conc. 10", "result": 0.5228}, {"measurement": "2^-dCq (H3K4me3 ChIP-qPCR, IP relative to H3)", "setting": "Figure 7 D chr3:165514798-165514911 Intragenic (BCHE), Plasmid PRDM9WT, Drug Conc. 2.5", "result": 6.769}, {"measurement": "2^-dCq (H3K4me3 ChIP-qPCR, IP relative to H3)", "setting": "Figure 7 D chr3:165514798-165514911 Intragenic (BCHE), Plasmid PRDM9WT, Drug Conc. 5", "result": 7.878}, {"measurement": "2^-dCq (H3K4me3 ChIP-qPCR, IP relative to H3)", "setting": "Figure 7 D chr3:165514798-165514911 Intragenic (BCHE), Plasmid PRDM9WT, Drug Conc. 10", "result": 3.468}, {"measurement": "2^-dCq (H3K4me3 ChIP-qPCR, IP relative to H3)", "setting": "Figure 7 E chr12:6643945-6644023 TSS (GAPDH), Plasmid Empty Vector, Drug Conc. 2.5", "result": 49.5681}, {"measurement": "2^-dCq (H3K4me3 ChIP-qPCR, IP relative to H3)", "setting": "Figure 7 E chr12:6643945-6644023 TSS (GAPDH), Plasmid Empty Vector, Drug Conc. 5", "result": 83.0384}, {"measurement": "2^-dCq (H3K4me3 ChIP-qPCR, IP relative to H3)", "setting": "Figure 7 E chr12:6643945-6644023 TSS (GAPDH), Plasmid Empty Vector, Drug Conc. 10", "result": 114.864}, {"measurement": "2^-dCq (H3K4me3 ChIP-qPCR, IP relative to H3)", "setting": "Figure 7 E chr12:6643945-6644023 TSS (GAPDH), Plasmid PRDM9WT, Drug Conc. 2.5", "result": 64.1133}, {"measurement": "2^-dCq (H3K4me3 ChIP-qPCR, IP relative to H3)", "setting": "Figure 7 E chr12:6643945-6644023 TSS (GAPDH), Plasmid PRDM9WT, Drug Conc. 5", "result": 130.72}, {"measurement": "2^-dCq (H3K4me3 ChIP-qPCR, IP relative to H3)", "setting": "Figure 7 E chr12:6643945-6644023 TSS (GAPDH), Plasmid PRDM9WT, Drug Conc. 10", "result": 21.1787}, {"measurement": "2^-dCq (H3K4me3 ChIP-qPCR, IP relative to H3)", "setting": "Figure 7 F chr19:8510167-8510261 TSS (HNRNPM), Plasmid Empty Vector, Drug Conc. 2.5", "result": 123.77}, {"measurement": "2^-dCq (H3K4me3 ChIP-qPCR, IP relative to H3)", "setting": "Figure 7 F chr19:8510167-8510261 TSS (HNRNPM), Plasmid Empty Vector, Drug Conc. 5", "result": 107.435}, {"measurement": "2^-dCq (H3K4me3 ChIP-qPCR, IP relative to H3)", "setting": "Figure 7 F chr19:8510167-8510261 TSS (HNRNPM), Plasmid Empty Vector, Drug Conc. 10", "result": 99.1079}, {"measurement": "2^-dCq (H3K4me3 ChIP-qPCR, IP relative to H3)", "setting": "Figure 7 F chr19:8510167-8510261 TSS (HNRNPM), Plasmid PRDM9WT, Drug Conc. 2.5", "result": 68.6717}, {"measurement": "2^-dCq (H3K4me3 ChIP-qPCR, IP relative to H3)", "setting": "Figure 7 F chr19:8510167-8510261 TSS (HNRNPM), Plasmid PRDM9WT, Drug Conc. 5", "result": 143.684}, {"measurement": "2^-dCq (H3K4me3 ChIP-qPCR, IP relative to H3)", "setting": "Figure 7 F chr19:8510167-8510261 TSS (HNRNPM), Plasmid PRDM9WT, Drug Conc. 10", "result": 36.5414}, {"measurement": "H3K4me3 ChIP-qPCR 2^-dCq (IP-Input)", "setting": "Empty Vector, Drug Conc. 2.5", "result": 0.6992}, {"measurement": "H3K4me3 ChIP-qPCR 2^-dCq (IP-Input)", "setting": "Empty Vector, Drug Conc. 5", "result": 0.9795}, {"measurement": "H3K4me3 ChIP-qPCR 2^-dCq (IP-Input)", "setting": "Empty Vector, Drug Conc. 10", "result": 0.6781}, {"measurement": "H3K4me3 ChIP-qPCR 2^-dCq (IP-Input)", "setting": "PRDM9WT, Drug Conc. 2.5", "result": 6.293}, {"measurement": "H3K4me3 ChIP-qPCR 2^-dCq (IP-Input)", "setting": "PRDM9WT, Drug Conc. 5", "result": 5.934}]}]}
